Data taken from ChEMBL document CHEMBL3102765, “Unsymmetrical 1,5-diaryl-3-oxo-1,4-pentadienyls and their evaluation as antiparasitic agents” (Bioorg Med Chem, 2014).

Columns and labels:
[1] = test system: Trypanosoma cruzi; experiment: Antiparasitic activity against trypomastigote form of Trypanosoma cruzi Y infected in LLCMK2 cells assessed as parasite lysis after 24 hrs by Pizzi-Brener method; format: functional, organism-based; conditions: LLC-MK2, 24 h
[2] = Cytotoxicity against monkey LLC-MK2 cells after 48 hrs by MTT assay; format: cell-based, Macaca mulatta; conditions: rhesus monkey
[3] = Cytotoxicity against mouse J774A1 cells after 48 hrs by MTT assay; format: cell-based, J774.A1
[4] = test system: Leishmania amazonensis; experiment: Antiparasitic activity against promastigote form of Leishmania amazonensis MHOM/BR/Josefa after 72 hrs by hemocytometry; format: functional, organism-based
[5] = test system: Trypanosoma cruzi; experiment: Antiparasitic activity against epimastigote form of Trypanosoma cruzi Y after 96 hrs by hemocytometry; format: functional, organism-based

| SMILES | EC50 [1] | IC50 [4] | IC50 [5] | CC50 at 48 h [2] | CC50 at 48 h [3] |
| --- | --- | --- | --- | --- | --- |
| C/C(=C\c1ccc(N(C)C)cc1)C(=O)/C=C/c1ccc(N(C)C)cc1 | > 100 µM | 20.5 µM | 25.1 µM | 314 µM | 10 µM |
| C/C(=C\c1ccc(N(C)C)cc1)C(=O)/C=C/c1ccccc1 | 78.3 µM | 21.5 µM | 24.1 µM | 191 µM | 28.5 µM |
| O=C(Cn1ccnc1[N+](=O)[O-])NCc1ccccc1 [BENZNIDAZOLE] | – | – | – | 615 µM | – |
| COc1ccc(/C=C(\C)C(C)=O)cc1 | > 100 µM | > 100 µM | > 100 µM | 280 µM | 240 µM |
| COc1ccc(/C=C/C(=O)/C(C)=C/c2ccc(OC)cc2)cc1 | > 100 µM | 21.8 µM | 23.6 µM | 75 µM | 34.1 µM |
| COc1ccc(/C=C/C(=O)/C(C)=C/c2ccc([N+](=O)[O-])cc2)cc1 | 73.3 µM | 15.5 µM | 10 µM | 172 µM | 36.6 µM |
| COc1ccc(/C=C/C(=O)/C(C)=C/c2ccccc2)cc1 | > 100 µM | 20.4 µM | 14.3 µM | 93 µM | 51 µM |
| CC(=O)/C(C)=C/c1ccccc1 | > 100 µM | > 100 µM | > 100 µM | 688 µM | 742 µM |
| COc1ccc(/C=C/C(=O)/C(C)=C/c2ccc(N(C)C)cc2)cc1 | > 100 µM | 20.1 µM | > 100 µM | 285 µM | 34.3 µM |
| COc1ccc(/C=C(\C)C(=O)/C=C/c2ccc(N(C)C)cc2)cc1 | > 100 µM | 18 µM | 21.3 µM | 411 µM | 36.2 µM |
| CC(=O)/C(C)=C/c1ccc([N+](=O)[O-])cc1 | > 100 µM | > 100 µM | 82.2 µM | 266 µM | 70.5 µM |
| C/C(=C\c1ccccc1)C(=O)/C=C/c1ccc(N(C)C)cc1 | > 100 µM | 20 µM | 13.3 µM | 53 µM | 20.2 µM |
| CC(=O)/C(C)=C/c1ccc(N(C)C)cc1 | > 100 µM | > 100 µM | > 100 µM | 150 µM | 160 µM |
| C/C(=C\c1ccc(N(C)C)cc1)C(=O)/C=C/c1ccc([N+](=O)[O-])cc1 | > 100 µM | > 100 µM | > 100 µM | 167 µM | 967 µM |
| COc1ccc(/C=C(\C)C(=O)/C=C/c2ccccc2)cc1 | 73.3 µM | 22.3 µM | 16.7 µM | 44 µM | 54 µM |

Now from value to molecule, other results behind:

| EC50 [1] | IC50 [4] | IC50 [5] | SMILES | CC50 at 48 h [2] | CC50 at 48 h [3] |
| --- | --- | --- | --- | --- | --- |
| 17.5 µM | 13.4 µM | 3.5 µM | C/C(=C\c1ccc([N+](=O)[O-])cc1)C(=O)/C=C/c1ccccc1 | 264 µM | 47.3 µM |
| – | 0.06 µM | – | C[C@@H]1[C@H](O)[C@@H](C)/C=C/C=C/C=C/C=C/C=C/C=C/C=C/[C@H](O[C@@H]2O[C@H](C)[C@@H](O)[C@H](N)[C@@H]2O)C[C@@H]2O[C@](O)(C[C@@H](O)C[C@@H](O)[C@H](O)CC[C@@H](O)C[C@@H](O)CC(=O)O[C@H]1C)C[C@H](O)[C@H]2C(=O)O [AMPHOTERICIN B] | – | – |
| 15.4 µM | 3.4 µM | 1.8 µM | C/C(=C\c1ccc([N+](=O)[O-])cc1)C(=O)/C=C/c1ccc([N+](=O)[O-])cc1 | 32.5 µM | 43 µM |
| > 100 µM | 14.8 µM | 25.2 µM | COc1ccc(/C=C(\C)C(=O)/C=C/c2ccc([N+](=O)[O-])cc2)cc1 | 20.1 µM | 30 µM |
| 71.7 µM | 15.3 µM | 15.9 µM | C/C(=C\c1ccccc1)C(=O)/C=C/c1ccccc1 | 33.6 µM | 34.5 µM |
| 65 µM | 11.6 µM | 16.9 µM | C/C(=C\c1ccccc1)C(=O)/C=C/c1ccc([N+](=O)[O-])cc1 | 43.3 µM | 26 µM |
| > 100 µM | 12 µM | 14 µM | C/C(=C\c1ccc([N+](=O)[O-])cc1)C(=O)/C=C/c1ccc(N(C)C)cc1 | 25.9 µM | 24.7 µM |
